From ChEMBL document CHEMBL5303573, “Mapping human microbiome drug metabolism by gut bacteria and their genes” (Nature, 2019) come the findings set out here.

The nature of data set [1]: The drug is tested on Bifidobacterium ruminantium strain: fecal isolate for biotransformation. The drug concentrations were measured before and after a 12-h incubation by liquid-chromatography-coupled mass spectrometry (LC–MS). The settings on record: 2 µM.
Data set [2] can be described thus: The drug is tested on Collinsella aerofaciens strain: ATCC25986 for biotransformation. The drug concentrations were measured before and after a 12-h incubation by liquid-chromatography-coupled mass spectrometry (LC–MS). The settings on record: 2 µM.
A short description of data set [3]: The drug is tested on Bacteroides caccae strain: ATCC43185 for biotransformation. The drug concentrations were measured before and after a 12-h incubation by liquid-chromatography-coupled mass spectrometry (LC–MS). The note with it: 2 µM.
Data set [4] is described as follows: The drug is tested on Bacteroides finegoldii strain: DSM17565 for biotransformation. The drug concentrations were measured before and after a 12-h incubation by liquid-chromatography-coupled mass spectrometry (LC–MS). The note with it: 2 µM.
Data set [5] in a line: The drug is tested on Bacteroides uniformis strain: ATCC8492 for biotransformation. The drug concentrations were measured before and after a 12-h incubation by liquid-chromatography-coupled mass spectrometry (LC–MS). The note with it: 2 µM.
The nature of data set [6]: The drug is tested on Odoribacter splanchnicus strain: fecal isolate for biotransformation. The drug concentrations were measured before and after a 12-h incubation by liquid-chromatography-coupled mass spectrometry (LC–MS). The settings on record: 2 µM.
Data set [7] can be described thus: The drug is tested on Clostridium sp. strain: fecal isolate for biotransformation. The drug concentrations were measured before and after a 12-h incubation by liquid-chromatography-coupled mass spectrometry (LC–MS). The settings on record: 2 µM.
Data set [8] can be described thus: The drug is tested on Clostridium scindens strain: ATCC35704 for biotransformation. The drug concentrations were measured before and after a 12-h incubation by liquid-chromatography-coupled mass spectrometry (LC–MS). The note with it: 2 µM.
Data set [9] is described as follows: The drug is tested on Clostridium symbiosum strain: ATCC14940 for biotransformation. The drug concentrations were measured before and after a 12-h incubation by liquid-chromatography-coupled mass spectrometry (LC–MS). The settings on record: 2 µM.
The nature of data set [10]: The drug is tested on Enterococcus faecalis strain: V583 for biotransformation. The drug concentrations were measured before and after a 12-h incubation by liquid-chromatography-coupled mass spectrometry (LC–MS). The note with it: 2 µM.
The nature of data set [11]: The drug is tested on Eubacterium rectale strain: ATCC33656 for biotransformation. The drug concentrations were measured before and after a 12-h incubation by liquid-chromatography-coupled mass spectrometry (LC–MS). The note with it: agathobacter rectalis, 2 µM.
Data set [12] can be described thus: The drug is tested on Escherichia coli strain: BW25113 for biotransformation. The drug concentrations were measured before and after a 12-h incubation by liquid-chromatography-coupled mass spectrometry (LC–MS). The note with it: 2 µM.
The conditions of data set [13]: bacteroides eggerthii, 12 h, 2 µM.
Description: The drug is tested on Bacteroides eggerthii strain: DSM20697 for biotransformation. The drug concentrations were measured before and after a 12-h incubation by liquid-chromatography-coupled mass spectrometry (LC–MS)
For data set [14] the following is noted: bacteroides thetaiotaomicron, 12 h, 2 µM.
Description: The drug is tested on Bacteroides thetaiotaomicron strain: 7330 for biotransformation. The drug concentrations were measured before and after a 12-h incubation by liquid-chromatography-coupled mass spectrometry (LC–MS)
For data set [15] the following is noted: parabacteroides johnsonii, 12 h, 2 µM.
Description: The drug is tested on Parabacteroides johnsonii strain: DSM18315 for biotransformation. The drug concentrations were measured before and after a 12-h incubation by liquid-chromatography-coupled mass spectrometry (LC–MS)
The conditions of data set [16]: segatella copri, 12 h, 2 µM.
Description: The drug is tested on Prevotella copri strain: DSM18205 for biotransformation. The drug concentrations were measured before and after a 12-h incubation by liquid-chromatography-coupled mass spectrometry (LC–MS)
The nature of data set [17]: The drug is tested on Alistipes indistinctus strain: DSM22520 for biotransformation. The drug concentrations were measured before and after a 12-h incubation by liquid-chromatography-coupled mass spectrometry (LC–MS). The settings on record: 2 µM.
The conditions of data set [18]: parabacteroides distasonis, 12 h, 2 µM.
Description: The drug is tested on Parabacteroides distasonis strain: ATCC8503 for biotransformation. The drug concentrations were measured before and after a 12-h incubation by liquid-chromatography-coupled mass spectrometry (LC–MS)

With `CN1CCc2c(c3ccccc3n2Cc2ccccc2)C1.CN1CCc2c(c3ccccc3n2Cc2ccccc2)C1.O=S(=O)(O)c1cccc2c(S(=O)(=O)O)cccc12`, the “Bacterial Biotransformation” value in data set [1], in data set [2], in data set [3], in [4], in [5] and in data set [6] was “Compound NOT metabolized” each time. In addition, the “Bacterial Biotransformation” value in data set [7], in data set [8], in [9], in data set [10], in [11] and in [12] was “Compound NOT metabolized” throughout. Besides, the “Bacterial Biotransformation” value in data set [13], in data set [14], in data set [15] and in [16] was “Compound NOT metabolized” throughout.
In the case of `CN1CCC(OC(c2ccccc2)c2ccccc2)CC1`, the “Bacterial Biotransformation” value in data set [1] is listed as “Compound metabolized”; in [2] it was “Compound NOT metabolized”; in data set [17], “Compound NOT metabolized”; in [3], “Compound NOT metabolized”; in data set [4], “Compound NOT metabolized”; in data set [5], “Compound NOT metabolized”. Moreover, the “Bacterial Biotransformation” value in data set [6], in [8], in [9], in data set [10], in [11] and in data set [12] was “Compound NOT metabolized” each time. The “Bacterial Biotransformation” value in data set [13], in [14], in data set [15] and in data set [16] was “Compound NOT metabolized” throughout.
Turning to `CN1[C@@H]2CC[C@H]1C[C@@H](OC(=O)C(CO)c1ccccc1)C2` (stereo partly drawn) [ATROPINE], the “Bacterial Biotransformation” value in [1], in data set [2], in [17], in data set [3], in [4] and in [5] was “Compound NOT metabolized” each time. The “Bacterial Biotransformation” value in data set [6], in [11], in data set [13], in [14] and in [16] was “Compound NOT metabolized” in each case.
Take `O=C(CCCN1CCC(O)(c2ccc(Cl)cc2)CC1)c1ccc(F)cc1` [HALOPERIDOL]: the “Bacterial Biotransformation” value in data set [1], in [2], in data set [17], in [3], in [4] and in data set [6] was “Compound NOT metabolized” each time. Moreover, the “Bacterial Biotransformation” value in data set [8], in data set [9], in [10], in data set [11], in data set [12] and in data set [13] was “Compound NOT metabolized” in each case. The “Bacterial Biotransformation” value in data set [14] and in [16] was “Compound NOT metabolized” each time.
As for `CN1CCC(=C2c3ccccc3CC(=O)c3sccc32)CC1.O=C(O)/C=C/C(=O)O` [KETOTIFEN FUMARATE], the “Bacterial Biotransformation” value in data set [1], in data set [2], in data set [3], in data set [4], in [5] and in data set [6] was “Compound NOT metabolized” each time. Moreover, the “Bacterial Biotransformation” value in data set [7], in [8], in [9], in data set [10], in data set [11] and in data set [13] was “Compound NOT metabolized” throughout. Further, the “Bacterial Biotransformation” value in data set [14], in data set [18], in data set [15] and in data set [16] was “Compound NOT metabolized” each time.
Turning to `Nc1nnc(-c2cccc(Cl)c2Cl)c(N)n1` [LAMOTRIGINE], the “Bacterial Biotransformation” value in data set [1], in data set [2], in data set [3], in data set [4], in data set [5] and in data set [7] was “Compound NOT metabolized” in each case. For the same compound, the “Bacterial Biotransformation” value in data set [8], in [9], in data set [10], in [11], in data set [12] and in [13] was “Compound NOT metabolized” each time. Further, the “Bacterial Biotransformation” value in [16] is “Compound NOT metabolized”.
Consider `CN1CCOC(c2ccccc2)c2ccccc2C1` (stereo not drawn) [NEFOPAM], for which the “Bacterial Biotransformation” value in [1], in data set [2], in data set [3], in data set [4], in data set [8] and in data set [9] was “Compound NOT metabolized” throughout. Further, the “Bacterial Biotransformation” value in data set [10], in [11], in [13], in [14], in [18] and in data set [15] was “Compound NOT metabolized” each time. In data set [16], the “Bacterial Biotransformation” value was “Compound NOT metabolized”.
Take `Cc1cc2c(s1)Nc1ccccc1N=C2N1CCN(C)CC1` [OLANZAPINE]: the “Bacterial Biotransformation” value in data set [1] is on record as “Compound NOT metabolized”; in data set [2], “Compound NOT metabolized”; in data set [17], “Compound NOT metabolized”; in [3] it was “Compound NOT metabolized”; in data set [4], “Compound NOT metabolized”; in data set [6], “Compound metabolized”. The “Bacterial Biotransformation” value in data set [8], in [9], in data set [10], in data set [11], in data set [12] and in [13] was “Compound NOT metabolized” in each case. For the same compound, the “Bacterial Biotransformation” value in [14], in [18], in [15] and in data set [16] was “Compound NOT metabolized” throughout.
Regarding `COc1ccc(Cc2nccc3cc(OC)c(OC)cc23)cc1OC` [PAPAVERINE], the “Bacterial Biotransformation” value in data set [1], in data set [2], in data set [3], in [4], in [7] and in [8] was “Compound NOT metabolized” each time. For the same compound, the “Bacterial Biotransformation” value in data set [9], in [10], in data set [11], in data set [12], in data set [13] and in [14] was “Compound NOT metabolized” in each case. The “Bacterial Biotransformation” value in data set [16] is recorded as “Compound NOT metabolized”.
